In patent publication US9315513B2, “Benzimidazole derivatives and their pharmaceutical compositions and uses” (XUANZHU PHARMA CO., LTD., priority 2010, dated 2016):
Values joined by “and” are separate entries in the source; they are usually repeats but may differ in a detail not shown here. Equal values may be shown once. Where a name gives a salt, the structure may show the parent alone. Read-outs that look alike come from different tables or passages of the source.

Tests used:
[1] = test system: reflux esophagitis in rats; experiment: Effects on reflux esophagitis in rats; assay type: in vivo, Wistar rats; set-up: Esophagitis index: scale not given here; details: for Esophagitis index / Esophagus injury score / Injury status: 20 mg/kg through duodenum, 5 h; for Esophagitis index: 6 rats per group, average ± SD; for Esophagus injury score / Injury status: individual rats; for Protection effect on reflux esophagitis in rats (conclusion): in comparison with the model group
Procedure: The rats were etherized, laparotomized, pylorus ligated, and ligated at the part between glandular stomach and rumen. After ligation, the drugs were immediately administered through duodenum, in which the groups of the test samples were administered with test samples in 20 mg/kg, the model group was administered with the same volume of solvent, and the abdomens were then closed. The rats were released to the fasting cage, subjected to fasting and water deprivation for 5 h and then executed by air embolism. The stomach and esophagus were taken out together, fixed with 1% formaldehyde in esophagus for 1 h, and then the injury of esophagus was observed.

[2] = In vivo pharmacokinetic test in rats; set-up: species or system Wistar rats; details: for clearance / half-life / Vd: iv
Procedure: Experimental animals: male Wistar rats, 6 rats/compound, body weight 180-220 g, purchased from Shandong University, certificate no.: SCXK ( ? ) 20090001.
Experimental samples: Compound 1, Compound 29 and Compound 30 of the present invention, each of them is prepared according to the methods of the above examples, and dissolved in physiological saline before test.
Administration: as for intravenous push (I.V), Compound 1, Compound 29, Compound 30 were administered in a dose of 5 mg/kg, and a volume of 2 mL/kg; as for intragastric administration (P.O), Compound 1, Compound 29, Compound 30 were administered in a dose of 5 mg/kg, and a volume of 2 mL/kg. The rats were fasted without water deprivation for […] administration, and fed after 4 hours from the administration.
Blood collection: 0 h, 0.083 h, 0.25 h, 0.5 h, 1 h, 2 h, 4 h, 8 h, 24 h, at each time point, about 150 μL of whole blood was collected, centrifuged at 4° C. and 8000 rpm for 6 min using a low-temperature high-speed centrifuge, the separated plasma was frozen and stored at −80° C. in a refrigerator.
Analysis of plasma samples: as for Compound 1, Compound 29, Compound 30, 50 μL of plasma was taken, added with 120 μL internal standard solution (Tolbutamide, 5 ng/mL MeOH solution), subjected to 1500 rpm vortex for 2 min, then centrifuged at 14000 rpm for 5 min, the supernatant was collected, and analyzed by using LC-MS/MS. Calculation formula: absolute bioavailability F %=[AUC]INF(PO)*Dose(IV)/[AUC]INF(IV)*Dose(PO)
Wherein, AUCINF represents area under drug-time curve0→∞; Cmax represents peak drug concentration in blood; Tmax represents a time for reaching peak drug concentration in blood; F % represents absolute bioavailability; CL represents clearance rate; Vss represents apparent volume of distribution; T1/2 represents half-life period.

[3] = test system: gastric acid in pylorus ligated rats; experiment: Inhibition effects on gastric acid in pylorus ligated rats; assay type: in vivo, Wistar rats; details: for Inhibition effect on the gastric acid secretion in pylorus ligated rats (conclusion): in comparison with the solvent group
Procedure: Experimental animals: six-week old clean Wistar rats, male, 140-180 g.
Experimental samples: part of the compounds of the present invention, which structural formula and chemical name are shown in Table 1. […] Before test, these compounds were dissolved with physiological saline.
Pylorus was ligated by passing a suture beneath gastric pylorus, the drugs were immediately administered through duodenum, in which the solvent group was administered with physiological saline in 2 mL/kg, […] The animals were executed after 6 h, laparotomized, esophagus was ligated near to diaphragmatic muscle, whole stomach was taken out, washed to remove blood, stomach contents were poured out, the acidity degree of gastric acid was tested with pH test paper, the stomach contents was then centrifuged at 3000 rpm for 10 min. The volume of the supernatant was metered, and 1 mL of the supernatant was titrated with 0.01 mol/L NaOH solution, phenolphthalein was used as indicator, the volume of NaOH was recorded, and the total acidity degree and total acid output of gastric juice were calculated. Gastric juice total acidity degree (mmol/L)=consumed volume of NaOH solution (mL)*0.01 mol/L (NaOH concentration)/1 mL (supernatant volume)*1000; 1 h total acid output (mmol/h)=total acidity degree (mmol/L)*gastric juice volume (mL)/6 h/1000.

[4] = test system: gastric acid; details: cited from earlier work
[5] = test system: gastric acid secretion; details: cited from earlier work
[6] = Table 3, 20 mg/kg through duodenum, 6 h after pylorus ligation
[7] = Table 3, 20 mg/kg through duodenum, 6 h after pylorus ligation, average ± SD
[8] = Table 4, 30 mg/kg through duodenum, 6 h
[9] = Table 4, 30 mg/kg through duodenum, 6 h, SD in neighbouring cell
[10] = Table 5, 20 mg/kg, comparison with Compound 81 as control
[11] = male, Wistar, rat, in vivo, 5 mg/kg
[12] = male, Wistar, rat, in vivo, po, 5 mg/kg

COCCCOc1ccnc(C[S+]([O-])c2nc3cc4c(cc3[nH]2)OCC4)c1C (stereo not shown) [Compound 1 (sodium salt)]
Esophagitis index [1]: 0.00 ± 0.00
Esophagus injury score ([1]; female rats): 0
Injury status ([1]; female rats): Normal
Esophagus injury score ([1]; male rats): 0
Injury status ([1]; male rats): Normal
clearance ([2]; male, Wistar, rat, plasma, rats, I.V, 5 mg/kg, read-out: CL (converted)): 32.5 mL/min/kg
half-life ([2]; male, Wistar, rat, plasma, rats, I.V, 5 mg/kg, read-out: T½ (converted)): 10.3 min
Vd ([2]; male, Wistar, rat, plasma, rats, I.V, 5 mg/kg, read-out: Vss): 0.255 L/kg
bioavailability ([2]; male, Wistar, rat, plasma, po, rats, P.O 5 mg/kg vs I.V 5 mg/kg, read-out: F % (absolute bioavailability)): 26.2%
AUC(0-inf) ([2]; male, Wistar, rat, plasma, po, rats, P.O, 5 mg/kg, read-out: AUCinf): 677 ng·h/mL
Cmax ([2]; male, Wistar, rat, plasma, po, rats, P.O, 5 mg/kg, read-out: Cmax): 1860 ng/mL
Tmax ([2]; male, Wistar, rat, plasma, po, rats, P.O, 5 mg/kg, read-out: Tmax): 4.98 to 15 min
Gastric juice volume [3, 6]: 3.33 ± 0.97 mL
Total acid output [3, 6]: 0.0276 ± 0.0194 mmol/h
Total acidity degree [3, 6]: 47.85 ± 24.38 mmol/L
Acidity degree (pH value) [3, 7]: 3.14 ± 1.31 pH value
Gastric juice volume [3, 8]: 3.60 ± 0.88 mL
Volume of supernatant of gastric juice [3, 8]: 2.92 ± 0.71 mL
Acidity degree (pH value) [3, 9]: 3.90 pH value
Total acid output [3, 9]: 0.0141 mmol/h
Total acidity degree [3, 9]: 28.98 mmol/L
Total acidity degree [3, 10]: 54.52 ± 13.87 mmol/L

COCCCOc1ccnc(C[S+]([O-])c2nc3cc4c(cc3[nH]2)OCC4)c1C (stereo not shown) [Compound 1, 2-[[4-(3-methoxylpropoxy)-3-methylpyridin-2-yl]methylsulfinyl]-6,7-dihydro-3H-benzofuro[5,6-d]imidazole]
Protection effect on reflux esophagitis in rats (conclusion) ([1]; 20 mg/kg): good protection effects on esophagus
In vivo pharmacokinetic properties (conclusion) ([2]; rat, in vivo): good in vivo pharmacokinetic properties
Inhibition effect on the gastric acid secretion in pylorus ligated rats (conclusion) ([3]; 20 mg/kg): significant inhibition effect

COCCCOc1ccnc(C[S+]([O-])c2nc3cc4c(cc3[nH]2)OCCO4)c1C (stereo not shown) [Compound 6 (sodium salt)]
Esophagitis index [1]: 3.00 ± 1.27
Esophagus injury score ([1]; 20 mg/kg, female rats): 4 (4 scores for injury area exceeding 75% or perforation) and 2 (2 scores for injury area of 25-50%) and 1 (1 score for injury area of 1-25%)
Esophagus injury score ([1]; 20 mg/kg, male rats): 3 (3 scores for injury area of 50-75%) and 4 (4 scores for injury area exceeding 75% or perforation) (2×)
Gastric juice volume [3, 6]: 10.28 mL
Total acid output [3, 6]: 0.0807 mmol/h
Total acidity degree [3, 6]: 103.16 mmol/L
Acidity degree (pH value) [3, 7]: 1.82 pH value

COCCCOc1ccnc(C[S+]([O-])c2nc3cc4c(cc3[nH]2)OCCO4)c1C (stereo not shown) [Compound 6, 2-[[4-(3-methoxylpropoxy)-3-methylpyridin-2-yl]methylsulfinyl]-6,7-dihydro-1H-[1,4]dioxino[2,3-f]benzo[d]imidazole]
Protection effect on reflux esophagitis in rats (conclusion) ([1]; 20 mg/kg): no protection effect
Inhibition effect on the gastric acid secretion in pylorus ligated rats (conclusion) ([3]; 20 mg/kg): do not show inhibition effect

COc1c(C)cnc(C[S+]([O-])c2nc3cc4[nH]cnc4cc3[nH]2)c1C (stereo not shown) [Compound 8, 2-[(3,5-dimethyl-4-methoxylpyridin-2-yl)methylsulfinyl]-1H,5H-imidazo[5,4-f]benzo[d]imidazole]
Inhibition effect on the gastric acid secretion in pylorus ligated rats (conclusion) ([3]; 20 mg/kg): do not show inhibition effect
Gastric juice volume [3, 6]: 6.10 mL
Total acid output [3, 6]: 0.1242 mmol/h
Total acidity degree [3, 6]: 120.92 mmol/L
Acidity degree (pH value) [3, 7]: 1.71 pH value

COCCCOc1ccnc(C[S@+]([O-])c2nc3cc4c(cc3[nH]2)OCC4)c1C [Compound 29, (S)-2-[[[4-(3-methoxylpropoxy)-3-methyl-2-pyridyl]methyl]sulfinyl]-6,7-dihydro-3H-benzofuro[5,6-d]imidazole]
clearance ([2]; male, Wistar, rat, in vivo, rats, I.V, 5 mg/kg, read-out: CL (converted)): 21.4 mL/min/kg
half-life ([2]; male, Wistar, rat, in vivo, rats, I.V, 5 mg/kg, read-out: T½ (converted)): 13.4 min
Vd ([2]; male, Wistar, rat, in vivo, rats, I.V, 5 mg/kg, read-out: Vss): 0.289 L/kg
bioavailability ([2]; male, Wistar, rat, in vivo, po, rats, P.O 5 mg/kg vs I.V 5 mg/kg, read-out: F % (absolute bioavailability)): 49.2%
AUC(0-inf) ([2]; male, Wistar, rat, in vivo, po, rats, P.O, 5 mg/kg, read-out: AUCinf): 1740 ng·h/mL
Cmax ([2]; male, Wistar, rat, in vivo, po, rats, P.O, 5 mg/kg, read-out: Cmax): 5780 ng/mL
Tmax ([2]; male, Wistar, rat, in vivo, po, rats, P.O, 5 mg/kg, read-out: Tmax): 4.98 min
apparent oral clearance (CL/F) ([2]; rats, P.O, 5 mg/kg): 53.77 mL/min/kg
In vivo pharmacokinetic properties (conclusion) ([2]; rats, Tables 8 and 9): good in vivo pharmacokinetic properties
Gastric juice volume [3, 8]: 3.43 ± 1.11 mL
Volume of supernatant of gastric juice [3, 8]: 2.70 ± 1.04 mL
Acidity degree (pH value) [3, 9]: 3.75 pH value
Total acid output [3, 9]: 0.0178 mmol/h
Total acidity degree [3, 9]: 37.85 mmol/L

COCCCOc1ccnc(C[S@@+]([O-])c2nc3cc4c(cc3[nH]2)OCC4)c1C [Compound 30 (sodium salt), (R)-2-[[[4-(3-methoxylpropoxy)-3-methyl-2-pyridyl]methyl]sulfinyl]-6,7-dihydro-3H-benzofuro[5,6-d]imidazole sodium]
Vd [2, 11]: 0.394 L/kg
clearance [2, 11]: 26.5 mL/min/kg
half-life [2, 11]: 16.5 min
AUC(0-inf) [2, 12]: 1260 ng·h/mL
CL [2, 12]: 83.5 mL/min/kg
Cmax [2, 12]: 3250 ng/mL
Tmax [2, 12]: 4.98 to 15 min
bioavailability [2, 12]: 39.3%
Gastric juice volume [3, 8]: 3.60 ± 1.30 mL
Volume of supernatant of gastric juice [3, 8]: 2.87 ± 1.17 mL
Acidity degree (pH value) [3, 9]: 6.08 pH value
Total acid output [3, 9]: 0.0076 mmol/h
Total acidity degree [3, 9]: 17.21 mmol/L

COCCCOc1ccnc(C[S@@+]([O-])c2nc3cc4c(cc3[nH]2)OCC4)c1C [Compound 30, (R)-2-[[[4-(3-methoxylpropoxy)-3-methyl-2-pyridyl]methyl]sulfinyl]-6,7-dihydro-3H-benzofuro[5,6-d]imidazole]
In vivo pharmacokinetic properties (conclusion) ([2]; rats, Tables 8 and 9): good in vivo pharmacokinetic properties

COc1c(C)cnc(C[S+]([O-])c2nc3cc4c(cc3[nH]2)OCO4)c1C (stereo not shown) [Compound 81, reference compound]
Esophagitis index [1]: 0.83 ± 1.60
Protection effect on reflux esophagitis in rats (conclusion) ([1]; 20 mg/kg): no protection effect
Injury status ([1]; 20 mg/kg): Normal
Esophagus injury score ([1]; 20 mg/kg, female rats): 0 (2×) and 1 (1 score for injury area of 1-25%)
Esophagus injury score ([1]; 20 mg/kg, male rats): 4 (4 scores for injury area exceeding 75% or perforation) and 0 (2×)
Total acidity degree [3, 10]: 71.27 ± 16.51 mmol/L

COCCCOc1ccnc(C[S+]([O-])c2nc3ccccc3[nH]2)c1C (stereo not shown) [Rabeprazole]
Time to achieve the maximum acid inhibition effect [4]: ≤ 5 min
Duration of action ([4]; compared with Omeprazole): shorter than that of Omeprazole
Activity against gastric acid secretion in vitro relative to Omeprazole [5]: 2-10 times
